# Measured values: patent publication US20240217957A1, “HETEROCYCLIC COMPOUND AND USE THEREOF” (TAKEDA PHARMACEUTICAL COMPANY LIMITED, priority 2022, published 2024)
# Biological target: T1, human OX2 receptor (Homo sapiens, UniProt O43614)
# T1 construct: expressed in transfected cells
# T1 sequence (O43614 1-444): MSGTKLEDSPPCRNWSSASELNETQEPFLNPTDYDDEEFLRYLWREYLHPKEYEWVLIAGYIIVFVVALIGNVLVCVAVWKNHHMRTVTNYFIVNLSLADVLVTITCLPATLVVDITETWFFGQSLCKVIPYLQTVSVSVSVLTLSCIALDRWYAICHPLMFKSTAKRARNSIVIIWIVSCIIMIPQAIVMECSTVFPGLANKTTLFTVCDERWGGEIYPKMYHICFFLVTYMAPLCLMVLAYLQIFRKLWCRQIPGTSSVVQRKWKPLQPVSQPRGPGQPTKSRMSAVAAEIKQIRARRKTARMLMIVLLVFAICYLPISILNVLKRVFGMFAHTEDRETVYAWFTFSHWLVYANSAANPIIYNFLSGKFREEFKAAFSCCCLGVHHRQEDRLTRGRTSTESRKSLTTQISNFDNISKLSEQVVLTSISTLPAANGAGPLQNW
# Experiment: Measurement of orexin type 2 receptor agonist activity (calcium fluorescence, Fluo-4 AM, FDSS)
# Format: cell-based
# Conditions: compound at 3 μM; CHO cells forcibly expressing human OX2 receptor; DMSO = 0%, 10 nM orexin A (human) = 100%
# Summary of the method: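 Agonist response is expressed as % of the fluorescence change given by 10 nM human orexin A, with DMSO as 0%, read over 1 min 40 s on FDSS after compound addition. Cells: stable human OX2 (1-444) CHO-K1 clones, dye-loaded with Fluo-4 AM plus probenecid in HEPES-buffered HBSS with 0.1% BSA.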
row,SMILES,"OX2R agonist activity (3 μM, %) [%]"
1,"CS(=O)(=O)N[C@@H]1CN(C2=NOC(CF)(c3ncc(F)cc3-c3c(F)cc(F)cc3F)C2)CC1(F)F (stereo partly drawn) [Example 147, N-[(3R)-4,4-difluoro-1-{5-(fluoromethyl)-5-[5-fluoro-3-(2,4,6-trifluorophenyl)pyridin-2-yl]-4,5-dihydro-1,2-oxazol-3-yl}pyrrolidin-3-yl]methanesulfonamide]",98
2,"CS(=O)(=O)N[C@@H]1CN(C2=NOC(CF)(c3ncccc3-c3c(F)cccc3F)C2)CC1(F)F (stereo partly drawn) [Example 150, N-[(3R)-1-{5-[3-(2,6-difluorophenyl)pyridin-2-yl]-5-(fluoromethyl)-4,5-dihydro-1,2-oxazol-3-yl}-4,4-difluoropyrrolidin-3-yl]methanesulfonamide]",95
3,"CCS(=O)(=O)N[C@@H]1CN(C2=NOC(CF)(c3ncccc3-c3c(F)cccc3F)C2)CC1(F)F (stereo partly drawn) [Example 151, N-[(3R)-1-{5-[3-(2,6-difluorophenyl)pyridin-2-yl]-5-(fluoromethyl)-4,5-dihydro-1,2-oxazol-3-yl}-4,4-difluoropyrrolidin-3-yl]ethanesulfonamide]",107
4,"CC1(c2ncc(Cl)cc2-c2ncc(F)cc2F)CC(N2C[C@@H](NS(C)(=O)=O)C(F)(F)C2)=NO1 (stereo partly drawn) [Example 152, N-{(3R)-1-[5-(5′-chloro-3,5-difluoro[2,3′-bipyridin]-2′-yl)-5-methyl-4,5-dihydro-1,2-oxazol-3-yl]-4,4-difluoropyrrolidin-3-yl}methanesulfonamide]",107
5,"CS(=O)(=O)N[C@@H]1CN(C2=NOC(CF)(c3ncc(C(F)F)cc3-c3c(F)cccc3F)C2)CC1(F)F (stereo partly drawn) [Example 153, N-[(3R)-1-{5-[5-(difluoromethyl)-3-(2,6-difluorophenyl)pyridin-2-yl]-5-(fluoromethyl)-4,5-dihydro-1,2-oxazol-3-yl}-4,4-difluoropyrrolidin-3-yl]methanesulfonamide]",96
6,"CS(=O)(=O)N[C@@H]1CN(C2=NOC(c3c(F)ccc(F)c3-c3c(F)cccc3F)C2)C[C@@H]1F (stereo partly drawn) [Example 159, N-{(3R,4S)-4-fluoro-1-[5-(2′,3,6,6′-tetrafluoro[1,1′-biphenyl]-2-yl)-4,5-dihydro-1,2-oxazol-3-yl]pyrrolidin-3-yl}methanesulfonamide]",99
7,"Cc1ccc(C2(C)CC(N3C[C@@H](NS(C)(=O)=O)C(F)(F)C3)=NO2)c(-c2ncc(F)cc2F)c1 (stereo partly drawn) [Example 161, N-[(3R)-1-{5-[2-(3,5-difluoropyridin-2-yl)-4-methylphenyl]-5-methyl-4,5-dihydro-1,2-oxazol-3-yl}-4,4-difluoropyrrolidin-3-yl]methanesulfonamide]",103
8,"O=S(=O)(CF)N[C@@H]1CN(C2=NO[C@](CF)(c3ncc(F)cc3-c3c(F)cccc3F)C2)C[C@@H]1F [Example 162, N-[(3R,4S)-1-{(5S)-5-[3-(2,6-difluorophenyl)-5-fluoropyridin-2-yl]-5-(fluoromethyl)-4,5-dihydro-1,2-oxazol-3-yl}-4-fluoropyrrolidin-3-yl]-1-fluoromethanesulfonamide]",103
9,"O=S(=O)(CF)N[C@@H]1CN(C2=NOC(CF)(c3ncc(F)cc3-c3c(F)cc(F)cc3F)C2)C[C@@H]1F (stereo partly drawn) [Example 163, 1-fluoro-N-[(3R,4S)-4-fluoro-1-{5-(fluoromethyl)-5-[5-fluoro-3-(2,4,6-trifluorophenyl)pyridin-2-yl]-4,5-dihydro-1,2-oxazol-3-yl}pyrrolidin-3-yl]methanesulfonamide]",98

# Results, then the compound that gave them:
row,"OX2R agonist activity (3 μM, %) [%]",SMILES
1,105,"Cc1cc(F)c(C2CC(N3C[C@@H](NS(C)(=O)=O)C(F)(F)C3)=NO2)c(-c2c(F)cc(F)cc2F)c1 (stereo partly drawn) [Example 145, N-{(3R)-4,4-difluoro-1-[5-(2′,3,4′,6′-tetrafluoro-5-methyl[1,1′-biphenyl]-2-yl)-4,5-dihydro-1,2-oxazol-3-yl]pyrrolidin-3-yl}methanesulfonamide]"
2,102,"Cc1cc(F)c(C2CC(N3C[C@@H](NS(C)(=O)=O)C(F)(F)C3)=NO2)c(-c2c(F)cccc2F)c1 (stereo partly drawn) [Example 146, N-{(3R)-4,4-difluoro-1-[5-(2′,3,6′-trifluoro-5-methyl[1,1′-biphenyl]-2-yl)-4,5-dihydro-1,2-oxazol-3-yl]pyrrolidin-3-yl}methanesulfonamide]"
3,98,"O=S(=O)(CF)N[C@@H]1CN(C2=NOC(c3ncc(Cl)cc3-c3c(F)cccc3F)C2)CC1(F)F (stereo partly drawn) [Example 148, N-[(3R)-1-{5-[5-chloro-3-(2,6-difluorophenyl)pyridin-2-yl]-4,5-dihydro-1,2-oxazol-3-yl}-4,4-difluoropyrrolidin-3-yl]-1-fluoromethanesulfonamide]"
4,102,"Cc1cc(F)c(C2CC(N3C[C@@H](NS(C)(=O)=O)C(F)(F)C3)=NO2)c(-c2ncc(F)cc2F)c1 (stereo partly drawn) [Example 154, N-[(3R)-1-{5-[2-(3,5-difluoropyridin-2-yl)-6-fluoro-4-methylphenyl]-4,5-dihydro-1,2-oxazol-3-yl}-4,4-difluoropyrrolidin-3-yl]methanesulfonamide]"
5,94,"CS(=O)(=O)N[C@@H]1CN(C2=NOC(c3c(F)cc(F)cc3-c3c(F)cccc3F)C2)CC1(F)F (stereo partly drawn) [Example 156, N-{(3R)-4,4-difluoro-1-[5-(2′,3,5,6′-tetrafluoro[1,1′-biphenyl]-2-yl)-4,5-dihydro-1,2-oxazol-3-yl]pyrrolidin-3-yl}methanesulfonamide]"
6,92,"CS(=O)(=O)N[C@@H]1CN(C2=NOC(CF)(c3ncccc3-c3c(F)cc(F)cc3F)C2)CC1(F)F (stereo partly drawn) [Example 157, N-[(3R)-4,4-difluoro-1-{5-(fluoromethyl)-5-[3-(2,4,6-trifluorophenyl)pyridin-2-yl]-4,5-dihydro-1,2-oxazol-3-yl}pyrrolidin-3-yl]methanesulfonamide]"
7,100,"CC1(c2ncc(F)cc2-c2c(F)cccc2F)CC(N2C[C@@H](NS(C)(=O)=O)C(F)(F)C2)=NO1 (stereo partly drawn) [Example 158, N-[(3R)-1-{5-[3-(2,6-difluorophenyl)-5-fluoropyridin-2-yl]-5-methyl-4,5-dihydro-1,2-oxazol-3-yl}-4,4-difluoropyrrolidin-3-yl]methanesulfonamide]"
8,104,"CS(=O)(=O)N[C@@H]1CN(C2=NOC(c3c(F)cccc3-c3c(F)cccc3F)C2)CC1(F)F (stereo partly drawn) [Example 160, N-{(3R)-4,4-difluoro-1-[5-(2′,3,6′-trifluoro[1,1′-biphenyl]-2-yl)-4,5-dihydro-1,2-oxazol-3-yl]pyrrolidin-3-yl}methanesulfonamide]"
9,102,"CS(=O)(=O)N[C@@H]1CN(C2=NOC(c3c(F)cc(F)c(F)c3-c3c(F)cccc3F)C2)C[C@@H]1F (stereo partly drawn) [Example 166, N-{(3R,4S)-4-fluoro-1-[5-(2′,3,5,6,6′-pentafluoro[1,1′-biphenyl]-2-yl)-4,5-dihydro-1,2-oxazol-3-yl]pyrrolidin-3-yl}methanesulfonamide]"
10,98,"O=S(=O)(CF)N[C@@H]1CN(C2=NOC(c3c(F)cc(F)cc3-c3c(F)cccc3F)C2)CC1(F)F (stereo partly drawn) [Example 169, N-{(3R)-4,4-difluoro-1-[5-(2′,3,5,6′-tetrafluoro[1,1′-biphenyl]-2-yl)-4,5-dihydro-1,2-oxazol-3-yl]pyrrolidin-3-yl}-1-fluoromethanesulfonamide]"
